Results reported in PubChem BioAssay AID256 (DTP/NCI, 2004).
Where “and” joins values, the source holds several entries; their conditions need not be identical. Equal entries are not always repeated. Inconclusive results and toxic doses are left out. How the source made its calls: active means survival T/C of 150% or more; inactive means T/C below 125% in these data.

Test system: CD2F1 mice, L1210 leukemia ip, survival T/C
Assay: NCI In Vivo Anticancer Drug Screen. Data for tumor model L1210 Leukemia (intraperitoneal) in CD2F1 (CDF1) mice
Details: higher = longer survival
Method in brief: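 Transplantable tumor in mice; compound-treated vs vehicle-treated groups. Read-out = treated/control ratio of the measured endpoint.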

[1] = endpoint: mean survival time, dose: 37.5 mg/kg/injection, schedule: Q01DX009 (ip), vehicle: saline
[2] = endpoint: mean survival time, dose: 75.0 mg/kg/injection, schedule: Q04DX003 (ip), vehicle: saline
[3] = endpoint: mean survival time, dose: 50.0 mg/kg/injection, schedule: Q01DX009 (ip), vehicle: saline
[4] = endpoint: mean survival time, dose: 100.0 mg/kg/injection, schedule: Q01DX001 (ip), vehicle: saline
[5] = endpoint: mean survival time, dose: 200.0 mg/kg/injection, schedule: Q01DX001 (ip), vehicle: saline
[6] = endpoint: mean survival time, dose: 100.0 mg/kg/injection, schedule: Q01DX009 (ip), vehicle: saline with Tween-80
[7] = endpoint: mean survival time, dose: 100.0 mg/kg/injection, schedule: Q04DX003 (ip), vehicle: saline with Tween-80
[8] = endpoint: mean survival time, dose: 200.0 mg/kg/injection, schedule: Q01DX009 (ip), vehicle: saline with Tween-80
[9] = endpoint: mean survival time, dose: 200.0 mg/kg/injection, schedule: Q04DX003 (ip), vehicle: saline with Tween-80
[10] = endpoint: mean survival time, dose: 100.0 mg/kg/injection, schedule: Q04DX003 (ip), vehicle: saline
[11] = endpoint: mean survival time, dose: 400.0 mg/kg/injection, schedule: Q01DX001 (ip), vehicle: saline

Measured: T/C

Cc1ccc(Cl)c2nc(-c3ccccc3)ccc12
inactive: [1] 105 % of control | endpoint: mean survival time, dose: 75.0 mg/kg/injection, schedule: Q01DX009 (ip), vehicle: saline 116 % of control | [2] 112 % of control | endpoint: mean survival time, dose: 150.0 mg/kg/injection, schedule: Q01DX009 (ip), vehicle: saline 101 % of control | endpoint: mean survival time, dose: 150.0 mg/kg/injection, schedule: Q04DX003 (ip), vehicle: saline 103 % of control | endpoint: mean survival time, dose: 300.0 mg/kg/injection, schedule: Q04DX003 (ip), vehicle: saline 93 % of control

O=c1nc2c(ncn2C2OC(CO)C(O)C2O)c(NCCc2ccccc2)[nH]1 (stereo not given)
inactive: endpoint: mean survival time, dose: 12.5 mg/kg/injection, schedule: Q01DX005 (ip), vehicle: water 93 % of control | endpoint: mean survival time, dose: 25.0 mg/kg/injection, schedule: Q01DX005 (ip), vehicle: water 98 % of control | endpoint: mean survival time, dose: 50.0 mg/kg/injection, schedule: Q01DX005 (ip), vehicle: water 96 % of control | endpoint: mean survival time, dose: 100.0 mg/kg/injection, schedule: Q01DX005 (ip), vehicle: water 112 % of control

CCC(=O)c1ccc(Cc2ccc(C(=O)CC)cc2)cc1
inactive: [3] 87 % of control | endpoint: mean survival time, dose: 100.0 mg/kg/injection, schedule: Q01DX009 (ip), vehicle: saline 92 % of control | endpoint: mean survival time, dose: 200.0 mg/kg/injection, schedule: Q01DX009 (ip), vehicle: saline 98 % of control | endpoint: mean survival time, dose: 400.0 mg/kg/injection, schedule: Q01DX009 (ip), vehicle: saline 93 % of control

Clc1ccc(-c2nnn3ccccc23)cc1
inactive: endpoint: mean survival time, dose: 12.5 mg/kg/injection, schedule: Q01DX001 (ip), vehicle: saline with Tween-80 107 % of control | endpoint: mean survival time, dose: 25.0 mg/kg/injection, schedule: Q01DX001 (ip), vehicle: saline with Tween-80 86 % of control | [4] 97 % of control | [5] 89 % of control

COc1ccccc1/C(C)=N\NC(=O)c1ccccc1
inactive: [6] 94 % of control | [7] 94 % of control | [8] 96 % of control | [9] 98 % of control | endpoint: mean survival time, dose: 400.0 mg/kg/injection, schedule: Q04DX003 (ip), vehicle: saline with Tween-80 104 % of control

Cc1cc(C)c(SC2c3ccccc3-c3ccccc32)c(C)c1
inactive: [4] 94 % of control | [10] 98 % of control | [5] 95 % of control | endpoint: mean survival time, dose: 200.0 mg/kg/injection, schedule: Q04DX003 (ip), vehicle: saline 90 % of control | [11] 94 % of control | endpoint: mean survival time, dose: 400.0 mg/kg/injection, schedule: Q04DX003 (ip), vehicle: saline 97 % of control

Cc1ncc(C=C(C(=O)O)C(=O)O)n1Cc1ccccc1
inactive: endpoint: mean survival time, dose: 100.0 mg/kg/injection, schedule: Q01DX001 (ip), vehicle: saline with Tween-80 98 % of control | endpoint: mean survival time, dose: 200.0 mg/kg/injection, schedule: Q01DX001 (ip), vehicle: saline with Tween-80 104 % of control | endpoint: mean survival time, dose: 400.0 mg/kg/injection, schedule: Q01DX001 (ip), vehicle: saline with Tween-80 104 % of control

CC1(C)OCC(C2OC(C)(C)OC2C2COC(C)(C)O2)O1 (stereo not given)
inactive: endpoint: mean survival time, dose: 100.0 mg/kg/injection, schedule: Q04DX002 (ip), vehicle: saline with Tween-80 100 % of control | endpoint: mean survival time, dose: 200.0 mg/kg/injection, schedule: Q04DX002 (ip), vehicle: saline with Tween-80 94 % of control | endpoint: mean survival time, dose: 400.0 mg/kg/injection, schedule: Q04DX002 (ip), vehicle: saline with Tween-80 101 % of control

Cc1ccc(NCC(=O)O)c([N+](=O)[O-])c1
inactive: [7] 95 % of control | [9] 103 % of control

OC(COc1ccccc1Cl)COc1ccccc1Cl
inactive: endpoint: mean survival time, dose: 100.0 mg/kg/injection, schedule: Q04DX003 (ip), vehicle: saline + alcohol 101 % of control | endpoint: mean survival time, dose: 200.0 mg/kg/injection, schedule: Q04DX003 (ip), vehicle: saline + alcohol 95 % of control | endpoint: mean survival time, dose: 400.0 mg/kg/injection, schedule: Q04DX003 (ip), vehicle: saline + alcohol 95 % of control

CC([NH-])C[NH-].O=C(O)C(O)C(O)C(O)C(O)CO.O=C(O)C(O)C(O)C(O)C(O)CO.[Pt+2] (stereo not given)
inactive: endpoint: mean survival time, dose: 25.0 mg/kg/injection, schedule: Q04DX003 (ip), vehicle: saline 113 % of control | endpoint: mean survival time, dose: 50.0 mg/kg/injection, schedule: Q04DX003 (ip), vehicle: saline 120 % of control | [10] 123 % of control

NS(=O)(=O)OCCCCCCCOS(N)(=O)=O
inactive: endpoint: median survival time, dose: 12.5 mg/kg/injection, schedule: Q01DX009 (ip), vehicle: saline with Tween-80 114 % of control and 116 % of control and 110 % of control

BrC/C(=N\N1CCCCC1)c1ccc(Br)cc1
inactive: endpoint: mean survival time, dose: 25.0 mg/kg/injection, schedule: Q01DX009 (ip), vehicle: saline sonified 100 % of control | endpoint: mean survival time, dose: 50.0 mg/kg/injection, schedule: Q01DX009 (ip), vehicle: saline sonified 96 % of control | [4] 94 % of control | endpoint: mean survival time, dose: 100.0 mg/kg/injection, schedule: Q01DX009 (ip), vehicle: saline sonified 96 % of control | [5] 102 % of control | [11] 95 % of control

NC(N)=NCCCC(NC(c1ccccc1)(c1ccccc1)c1ccccc1)C(=O)O (stereo not given)
inactive: [4] 88 % of control | [5] 92 % of control | [11] 98 % of control

C=C(Cl)CN(CC)CCO
inactive: [6] 103 % of control

C#CCOCCCC(=C)C
inactive: endpoint: mean survival time, dose: 100.0 mg/kg/injection, schedule: Q01DX001 (ip), vehicle: acetone 98 % of control

CCOc1nc(=O)n(C2OC(CO)C(O)C2O)s1 (stereo not given)
inactive: endpoint: mean survival time, dose: 12.5 mg/kg/injection, schedule: Q01DX005 (ip), vehicle: distilled water + Tween-80 100 % of control | endpoint: mean survival time, dose: 25.0 mg/kg/injection, schedule: Q01DX005 (ip), vehicle: distilled water + Tween-80 101 % of control | endpoint: mean survival time, dose: 50.0 mg/kg/injection, schedule: Q01DX005 (ip), vehicle: distilled water + Tween-80 101 % of control | endpoint: mean survival time, dose: 100.0 mg/kg/injection, schedule: Q01DX005 (ip), vehicle: distilled water + Tween-80 97 % of control | endpoint: mean survival time, dose: 200.0 mg/kg/injection, schedule: Q01DX005 (ip), vehicle: distilled water + Tween-80 102 % of control

O=Cc1cc(Br)c(O)c(Br)c1
inactive: endpoint: mean survival time, dose: 50.0 mg/kg/injection, schedule: Q01DX001 (ip), vehicle: Klucel (hydroxypropylcellulose) (HPC) 97 % of control | endpoint: mean survival time, dose: 100.0 mg/kg/injection, schedule: Q01DX001 (ip), vehicle: Klucel (hydroxypropylcellulose) (HPC) 93 % of control | endpoint: mean survival time, dose: 200.0 mg/kg/injection, schedule: Q01DX001 (ip), vehicle: Klucel (hydroxypropylcellulose) (HPC) 97 % of control

O=S(=O)(F)c1ccc(C[P+](c2ccccc2)(c2ccccc2)c2ccccc2)c(Cl)c1
inactive: endpoint: mean survival time, dose: 18.8 mg/kg/injection, schedule: Q01DX009 (ip), vehicle: saline 103 % of control | endpoint: mean survival time, dose: 18.8 mg/kg/injection, schedule: Q04DX003 (ip), vehicle: saline 114 % of control | [1] 100 % of control | endpoint: mean survival time, dose: 37.5 mg/kg/injection, schedule: Q04DX003 (ip), vehicle: saline 116 % of control | endpoint: mean survival time, dose: 75.0 mg/kg/injection, schedule: Q01DX001 (ip), vehicle: saline 103 % of control | [2] 112 % of control

c1ccc(-n2c3ccccc3c3ccccc32)cc1
inactive: [6] 98 % of control | [8] 98 % of control | endpoint: mean survival time, dose: 400.0 mg/kg/injection, schedule: Q01DX009 (ip), vehicle: saline with Tween-80 95 % of control

CCN(CC)CCOc1ccc2c(c1)C(=O)c1cc(OCCN(CC)CC)ccc1-2
inactive: endpoint: mean survival time, dose: 12.5 mg/kg/injection, schedule: Q01DX009 (ip), vehicle: saline 95 % of control | endpoint: mean survival time, dose: 25.0 mg/kg/injection, schedule: Q01DX009 (ip), vehicle: saline 98 % of control | [3] 101 % of control

OC1C2CCC1C(N1CCOCC1)CC2 (stereo not given)
inactive: endpoint: mean survival time, dose: 50.0 mg/kg/injection, schedule: Q01DX009 (ip), vehicle: saline with Tween-80 103 % of control | [6] 109 % of control | [7] 98 % of control | [8] 97 % of control | [9] 102 % of control
